Experimental data taken from patent US12157741B2, “Macrocyclic inhibitors of DYRK1A” (DANA-FARBER CANCER INSTITUTE, INC., priority 2018, dated 2024).
Where two headings read alike, the source gives them in different places.

How the values were obtained:
Format in all cases: binding
various enzymes [1] = biological target: various enzymes (Homo sapiens, UniProt P00533); details: compound 1 uM
Procedure: (§1) Ambit profiling was conducted in accordance with the manufacturer's instructions.

various enzymes [2] = biological target: various enzymes (Homo sapiens, UniProt Q9UHD2); details: compound 1 uM
Procedure: as §1

various enzymes [3] = biological target: various enzymes (Homo sapiens, UniProt Q00535); details: compound 1 uM
Procedure: as §1

various enzymes [4] = biological target: various enzymes (Homo sapiens, UniProt P24941); details: compound 1 uM
Procedure: as §1

various enzymes [5] = biological target: various enzymes (Homo sapiens, UniProt Q15139); details: compound 1 uM
Procedure: as §1

various enzymes [6] = biological target: various enzymes (Homo sapiens, UniProt Q14004); details: compound 1 uM
Procedure: as §1

various enzymes [7] = biological target: various enzymes (Homo sapiens, UniProt O00141); details: compound 1 uM
Procedure: as §1

various enzymes [8] = biological target: various enzymes (Homo sapiens, UniProt Q9Y243); details: compound 1 uM
Procedure: as §1

various enzymes [9] = biological target: various enzymes (Homo sapiens, UniProt Q2M2I8); details: compound 1 uM
Procedure: as §1

various enzymes [10] = biological target: various enzymes (Homo sapiens, UniProt O94921); details: compound 1 uM
Procedure: as §1

various enzymes [11] = biological target: various enzymes (Homo sapiens, UniProt Q9HC98); details: compound 1 uM
Procedure: as §1

various enzymes [12] = biological target: various enzymes (Homo sapiens, UniProt P19784); details: compound 1 uM
Procedure: as §1

various enzymes [13] = biological target: various enzymes (Homo sapiens, UniProt Q86YV6); details: compound 1 uM
Procedure: as §1

various enzymes [14] = biological target: various enzymes (Homo sapiens, UniProt O14936); details: compound 1 uM
Procedure: as §1

various enzymes [15] = biological target: various enzymes (Homo sapiens, UniProt Q9UM73, L1196M)
Procedure: as §1

various enzymes [16] = biological target: various enzymes (Homo sapiens, UniProt Q15746); details: compound 1 uM
Procedure: as §1

various enzymes [17] = biological target: various enzymes (Homo sapiens, UniProt P57078); details: compound 1 uM
Procedure: as §1

various enzymes [18] = biological target: various enzymes (Homo sapiens, UniProt P17948); details: compound 1 uM
Procedure: as §1

various enzymes [19] = biological target: various enzymes (Homo sapiens, UniProt P10721, V559D/V654A)
Procedure: as §1

various enzymes [20] = biological target: various enzymes (Homo sapiens, UniProt Q8TDR2); details: compound 1 uM
Procedure: as §1

various enzymes [21] = biological target: various enzymes (Homo sapiens, UniProt Q02779); details: compound 1 uM
Procedure: as §1

various enzymes [22] = biological target: various enzymes (Homo sapiens, UniProt Q13557); details: compound 1 uM
Procedure: as §1

various enzymes [23] = biological target: various enzymes (Homo sapiens, UniProt Q00532); details: compound 1 uM
Procedure: as §1

various enzymes [24] = biological target: various enzymes (Homo sapiens, UniProt Q16816); details: compound 1 uM
Procedure: as §1

various enzymes [25] = biological target: various enzymes (Homo sapiens, UniProt P42336, Q546K)
Procedure: as §1

various enzymes [26] = biological target: various enzymes (Homo sapiens, UniProt P53667); details: compound 1 uM
Procedure: as §1

various enzymes [27] = biological target: T1, various enzymes (Homo sapiens, UniProt Q08881); details: compound 1 uM
T1 sequence (Q08881 1-620): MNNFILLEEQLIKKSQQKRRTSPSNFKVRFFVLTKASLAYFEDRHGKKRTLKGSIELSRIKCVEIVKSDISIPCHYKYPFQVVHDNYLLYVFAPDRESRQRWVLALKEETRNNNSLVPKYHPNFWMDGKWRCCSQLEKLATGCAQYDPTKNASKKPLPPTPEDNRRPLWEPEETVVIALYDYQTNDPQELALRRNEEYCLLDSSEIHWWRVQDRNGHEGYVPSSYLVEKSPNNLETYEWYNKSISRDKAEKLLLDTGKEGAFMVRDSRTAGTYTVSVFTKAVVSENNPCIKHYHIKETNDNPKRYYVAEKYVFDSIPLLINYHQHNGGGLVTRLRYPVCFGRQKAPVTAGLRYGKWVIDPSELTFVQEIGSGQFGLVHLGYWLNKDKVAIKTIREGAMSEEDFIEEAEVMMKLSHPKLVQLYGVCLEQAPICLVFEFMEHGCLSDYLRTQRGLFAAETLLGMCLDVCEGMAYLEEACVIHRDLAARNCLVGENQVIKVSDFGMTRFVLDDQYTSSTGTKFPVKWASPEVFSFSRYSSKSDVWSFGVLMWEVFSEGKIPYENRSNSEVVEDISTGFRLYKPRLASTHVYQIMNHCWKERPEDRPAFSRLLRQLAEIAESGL
Procedure: as §1

various enzymes [28] = biological target: various enzymes (Homo sapiens, UniProt P36888, D835V)
Procedure: as §1

various enzymes [29] = biological target: various enzymes (Homo sapiens, UniProt P42679); details: compound 1 uM
Procedure: as §1

various enzymes [30] = biological target: various enzymes (Homo sapiens, UniProt P51812); details: compound 1 uM
Procedure: as §1

various enzymes [31] = biological target: various enzymes (Homo sapiens, UniProt Q86Z02); details: compound 1 uM
Procedure: as §1

various enzymes [32] = biological target: various enzymes (Homo sapiens, UniProt P08069); details: compound 1 uM
Procedure: as §1

various enzymes [33] = biological target: various enzymes (Homo sapiens, UniProt O15197); details: compound 1 uM
Procedure: as §1

various enzymes [34] = biological target: various enzymes (Homo sapiens, UniProt Q15208); details: compound 1 uM
Procedure: as §1

various enzymes [35] = biological target: various enzymes (Homo sapiens, UniProt P42684); details: compound 1 uM
Procedure: as §1

various enzymes [36] = biological target: various enzymes (Homo sapiens, UniProt Q9BVS4); details: compound 1 uM
Procedure: as §1

various enzymes (Homo sapiens, UniProt P51812), sequence (P51812 whole entry): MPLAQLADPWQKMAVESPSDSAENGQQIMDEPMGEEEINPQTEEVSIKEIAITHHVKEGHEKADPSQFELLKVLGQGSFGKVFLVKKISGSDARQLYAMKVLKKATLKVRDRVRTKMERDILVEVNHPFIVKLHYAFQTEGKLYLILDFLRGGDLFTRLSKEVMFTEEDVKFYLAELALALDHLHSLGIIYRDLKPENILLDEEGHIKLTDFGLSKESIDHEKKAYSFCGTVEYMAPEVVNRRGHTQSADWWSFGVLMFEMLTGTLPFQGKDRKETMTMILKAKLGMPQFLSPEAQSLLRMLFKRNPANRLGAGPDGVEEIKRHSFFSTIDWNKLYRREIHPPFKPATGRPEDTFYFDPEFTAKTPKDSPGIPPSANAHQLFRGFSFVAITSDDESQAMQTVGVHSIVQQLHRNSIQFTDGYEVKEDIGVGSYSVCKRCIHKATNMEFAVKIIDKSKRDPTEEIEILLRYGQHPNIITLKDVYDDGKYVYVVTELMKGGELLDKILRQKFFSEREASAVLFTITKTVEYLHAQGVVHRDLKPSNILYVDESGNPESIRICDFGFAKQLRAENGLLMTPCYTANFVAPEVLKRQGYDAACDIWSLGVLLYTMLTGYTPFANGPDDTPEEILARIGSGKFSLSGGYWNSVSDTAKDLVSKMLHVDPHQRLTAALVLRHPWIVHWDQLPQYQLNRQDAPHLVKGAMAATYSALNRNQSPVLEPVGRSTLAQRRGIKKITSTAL
various enzymes (Homo sapiens, UniProt Q86YV6), sequence (Q86YV6 whole entry): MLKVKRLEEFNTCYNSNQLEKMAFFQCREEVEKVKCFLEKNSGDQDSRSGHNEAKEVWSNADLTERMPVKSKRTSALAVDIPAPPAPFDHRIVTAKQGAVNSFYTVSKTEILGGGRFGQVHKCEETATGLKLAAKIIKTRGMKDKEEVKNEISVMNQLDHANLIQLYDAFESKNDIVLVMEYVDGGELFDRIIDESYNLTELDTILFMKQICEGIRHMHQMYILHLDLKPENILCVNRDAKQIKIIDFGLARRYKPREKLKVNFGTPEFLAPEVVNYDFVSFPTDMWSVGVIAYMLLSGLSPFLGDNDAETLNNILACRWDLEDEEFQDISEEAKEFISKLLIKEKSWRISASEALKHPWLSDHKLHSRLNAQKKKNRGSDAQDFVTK
various enzymes (Homo sapiens, UniProt P10721, V559D/V654A), sequence (P10721 26-976 V559D/V654A): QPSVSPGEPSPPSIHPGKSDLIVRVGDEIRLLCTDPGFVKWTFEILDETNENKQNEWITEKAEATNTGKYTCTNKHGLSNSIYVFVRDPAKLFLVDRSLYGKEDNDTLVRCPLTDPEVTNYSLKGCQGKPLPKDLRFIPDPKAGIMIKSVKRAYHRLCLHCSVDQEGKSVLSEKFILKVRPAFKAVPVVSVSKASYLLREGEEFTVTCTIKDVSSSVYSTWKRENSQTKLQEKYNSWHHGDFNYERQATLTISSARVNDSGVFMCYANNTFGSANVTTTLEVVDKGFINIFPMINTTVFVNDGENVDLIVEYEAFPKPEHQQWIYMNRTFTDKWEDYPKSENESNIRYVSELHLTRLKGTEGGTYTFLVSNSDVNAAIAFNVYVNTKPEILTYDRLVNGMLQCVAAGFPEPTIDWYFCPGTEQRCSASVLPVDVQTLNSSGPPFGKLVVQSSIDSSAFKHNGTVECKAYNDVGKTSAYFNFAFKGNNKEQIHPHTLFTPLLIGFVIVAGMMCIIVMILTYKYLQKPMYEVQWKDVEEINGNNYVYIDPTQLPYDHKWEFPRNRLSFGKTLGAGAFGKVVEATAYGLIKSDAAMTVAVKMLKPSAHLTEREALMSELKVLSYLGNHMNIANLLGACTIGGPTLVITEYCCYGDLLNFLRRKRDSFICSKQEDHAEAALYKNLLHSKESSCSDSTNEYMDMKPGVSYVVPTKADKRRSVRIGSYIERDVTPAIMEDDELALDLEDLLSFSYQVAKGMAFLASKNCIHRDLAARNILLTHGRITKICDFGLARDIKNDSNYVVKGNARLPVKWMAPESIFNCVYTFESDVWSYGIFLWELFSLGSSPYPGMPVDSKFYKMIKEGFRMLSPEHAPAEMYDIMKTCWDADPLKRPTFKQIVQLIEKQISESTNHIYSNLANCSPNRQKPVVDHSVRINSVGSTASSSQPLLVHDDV
various enzymes (Homo sapiens, UniProt Q9HC98), sequence (Q9HC98 whole entry): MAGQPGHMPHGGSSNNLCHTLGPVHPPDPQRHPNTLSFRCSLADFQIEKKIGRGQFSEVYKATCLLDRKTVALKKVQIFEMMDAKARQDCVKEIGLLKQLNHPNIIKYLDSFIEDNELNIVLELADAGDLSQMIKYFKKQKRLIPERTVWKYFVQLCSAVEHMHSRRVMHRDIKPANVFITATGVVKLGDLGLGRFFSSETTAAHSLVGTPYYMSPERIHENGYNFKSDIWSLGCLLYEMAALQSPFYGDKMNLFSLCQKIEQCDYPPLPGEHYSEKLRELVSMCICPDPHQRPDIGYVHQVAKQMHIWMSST
various enzymes (Homo sapiens, UniProt Q00532), sequence (Q00532 whole entry): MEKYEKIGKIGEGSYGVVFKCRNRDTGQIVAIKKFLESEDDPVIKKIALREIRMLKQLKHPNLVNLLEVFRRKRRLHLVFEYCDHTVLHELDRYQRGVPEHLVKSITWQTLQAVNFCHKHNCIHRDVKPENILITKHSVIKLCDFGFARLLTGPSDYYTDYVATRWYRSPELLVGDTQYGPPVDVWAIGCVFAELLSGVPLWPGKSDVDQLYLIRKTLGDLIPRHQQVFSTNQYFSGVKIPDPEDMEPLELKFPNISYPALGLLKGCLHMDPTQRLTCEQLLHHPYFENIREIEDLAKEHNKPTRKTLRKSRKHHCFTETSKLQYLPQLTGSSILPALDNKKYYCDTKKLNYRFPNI
various enzymes (Homo sapiens, UniProt Q2M2I8), sequence (Q2M2I8 whole entry): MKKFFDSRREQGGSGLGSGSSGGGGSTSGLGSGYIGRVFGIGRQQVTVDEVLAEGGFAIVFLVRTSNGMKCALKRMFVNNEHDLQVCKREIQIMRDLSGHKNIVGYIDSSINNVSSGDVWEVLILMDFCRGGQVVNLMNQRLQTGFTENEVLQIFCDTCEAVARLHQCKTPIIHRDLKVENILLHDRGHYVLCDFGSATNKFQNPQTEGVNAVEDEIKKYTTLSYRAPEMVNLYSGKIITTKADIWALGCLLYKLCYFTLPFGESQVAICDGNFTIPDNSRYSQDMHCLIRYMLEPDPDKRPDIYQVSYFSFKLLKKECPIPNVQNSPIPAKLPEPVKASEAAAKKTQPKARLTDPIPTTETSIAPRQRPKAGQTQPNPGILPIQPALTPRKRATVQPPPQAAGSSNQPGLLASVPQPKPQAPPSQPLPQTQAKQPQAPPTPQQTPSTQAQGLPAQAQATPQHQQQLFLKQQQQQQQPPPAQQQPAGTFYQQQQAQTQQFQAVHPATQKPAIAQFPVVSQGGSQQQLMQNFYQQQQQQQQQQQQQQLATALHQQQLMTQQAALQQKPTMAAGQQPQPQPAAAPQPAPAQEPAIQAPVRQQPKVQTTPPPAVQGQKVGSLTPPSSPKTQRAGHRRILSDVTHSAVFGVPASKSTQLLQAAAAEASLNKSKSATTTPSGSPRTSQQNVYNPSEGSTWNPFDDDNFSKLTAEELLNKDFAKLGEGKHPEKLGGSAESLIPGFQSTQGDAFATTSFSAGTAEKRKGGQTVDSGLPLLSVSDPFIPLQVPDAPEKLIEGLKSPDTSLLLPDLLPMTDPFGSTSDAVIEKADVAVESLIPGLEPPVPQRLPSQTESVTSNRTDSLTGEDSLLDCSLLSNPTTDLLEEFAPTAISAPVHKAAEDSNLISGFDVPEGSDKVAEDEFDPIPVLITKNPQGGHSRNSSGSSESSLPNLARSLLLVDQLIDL
various enzymes (Homo sapiens, UniProt Q8TDR2), sequence (Q8TDR2 whole entry): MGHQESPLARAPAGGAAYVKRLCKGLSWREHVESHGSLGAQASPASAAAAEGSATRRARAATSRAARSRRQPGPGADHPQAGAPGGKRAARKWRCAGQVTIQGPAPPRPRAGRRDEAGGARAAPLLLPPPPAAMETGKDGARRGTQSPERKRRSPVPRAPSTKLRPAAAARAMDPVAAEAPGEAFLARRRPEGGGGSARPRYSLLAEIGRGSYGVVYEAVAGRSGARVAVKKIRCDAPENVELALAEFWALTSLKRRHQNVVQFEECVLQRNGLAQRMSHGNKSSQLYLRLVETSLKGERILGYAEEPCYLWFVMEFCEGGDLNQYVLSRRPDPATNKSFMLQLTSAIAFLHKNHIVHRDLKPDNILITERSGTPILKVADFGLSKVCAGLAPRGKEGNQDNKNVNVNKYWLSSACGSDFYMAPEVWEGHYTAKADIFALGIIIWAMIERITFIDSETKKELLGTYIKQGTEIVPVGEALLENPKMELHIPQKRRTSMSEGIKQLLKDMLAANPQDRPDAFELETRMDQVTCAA
various enzymes (Homo sapiens, UniProt O00141), sequence (O00141 whole entry): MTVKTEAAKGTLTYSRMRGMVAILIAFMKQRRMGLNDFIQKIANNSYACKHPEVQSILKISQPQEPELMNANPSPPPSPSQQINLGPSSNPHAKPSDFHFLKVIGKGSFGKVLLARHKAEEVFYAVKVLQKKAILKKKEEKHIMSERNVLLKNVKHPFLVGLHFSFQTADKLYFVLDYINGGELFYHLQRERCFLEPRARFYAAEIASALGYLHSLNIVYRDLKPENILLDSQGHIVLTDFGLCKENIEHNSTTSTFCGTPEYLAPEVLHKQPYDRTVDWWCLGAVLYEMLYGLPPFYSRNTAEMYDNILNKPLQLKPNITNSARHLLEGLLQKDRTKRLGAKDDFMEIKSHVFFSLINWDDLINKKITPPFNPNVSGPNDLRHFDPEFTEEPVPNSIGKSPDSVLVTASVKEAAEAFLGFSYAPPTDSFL
various enzymes (Homo sapiens, UniProt P19784), sequence (P19784 whole entry): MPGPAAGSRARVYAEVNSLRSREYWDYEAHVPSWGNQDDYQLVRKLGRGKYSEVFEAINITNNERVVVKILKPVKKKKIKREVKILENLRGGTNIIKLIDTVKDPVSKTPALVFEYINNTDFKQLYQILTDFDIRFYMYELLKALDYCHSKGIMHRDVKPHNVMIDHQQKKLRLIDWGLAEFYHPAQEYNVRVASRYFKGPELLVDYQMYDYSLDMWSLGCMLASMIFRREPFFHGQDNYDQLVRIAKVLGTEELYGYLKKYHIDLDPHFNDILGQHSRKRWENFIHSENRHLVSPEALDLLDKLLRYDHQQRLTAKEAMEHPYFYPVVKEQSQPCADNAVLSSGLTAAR

Compound | Ambit profiling: EGFR (various enzymes [1]) | Ambit profiling: TBK1 (various enzymes [2]) | Ambit profiling: CDK5 (various enzymes [3]) | Ambit profiling: CDK2 (various enzymes [4]) | Ambit profiling: PRKD1 (various enzymes [5]) | Ambit profiling: CDC2L5 (various enzymes [6]) | Ambit profiling: SGK (various enzymes [7]) | Ambit profiling: AKT3 (various enzymes [8]) | Ambit profiling: AAK1 (various enzymes [9]) | Ambit profiling: PFTK1 (various enzymes [10]) | Ambit profiling: NEK6 (various enzymes [11]) | Ambit profiling: CSNK2A2 (various enzymes [12]) | Ambit profiling: MYLK4 (various enzymes [13]) | Ambit profiling: CASK (various enzymes [14]) | Ambit profiling: MYLK (various enzymes [16]) | Ambit profiling: RIPK4 (various enzymes [17]) | Ambit profiling: FLT1 (various enzymes [18]) | Ambit profiling: STK35 (various enzymes [20]) | Ambit profiling: MLK2 (various enzymes [21]) | Ambit profiling: CAMK2D (various enzymes [22]) | also measured
CC(C)N1Cc2nn(C)cc2-c2cnc3[nH]cc(c3c2)-c2cn(nc2C(F)(F)F)CCCC1=O [Compound 45, (Z)-5-isopropyl-31-methyl-13-(trifluoromethyl)-11H,21H,31H-5-aza-2(3,5)-pyrrolo[2,3-b]pyridina-1(4,1),3(4,3)-dipyrazolacyclononaphan-6-one] | 29 | 0 | 86 | 35 | 36 | 99 | 1.3 | 100 | 40 | 14 | 98 | 1.8 | 100 | 7.4 | 37 | 100 | 5.4 | 100 | 36 | 15 | Ambit profiling: ALK(L1196M) (various enzymes [15]; compound 1 uM): 18; Ambit profiling: KIT(V559D, V654A) (various enzymes [19]; compound 1 uM): 100; Ambit profiling: CDKL1 (various enzymes [23]): 39; Ambit profiling: PHKG1 (various enzymes [24]): 34; Ambit profiling: PIK3CA(Q546K) (various enzymes [25]; compound 1 uM): 100; Ambit profiling: LIMK1 (various enzymes [26]): 93; Ambit profiling: ITK (various enzymes [27]): 38; Ambit profiling: FLT3(D835V) (various enzymes [28]; compound 1 uM): 0; Ambit profiling: CTK (various enzymes [29]): 70; Ambit profiling: RSK2(Kin.Dom.1-N-terminal) (various enzymes [30]): 0.9; Ambit profiling: RSK2(Kin.Dom.2-C-terminal) (various enzymes [30]): 100; Ambit profiling: HIPK1 (various enzymes [31]): 6.5; Ambit profiling: IGF1R (various enzymes [32]): 86; Ambit profiling: EPHB6 (various enzymes [33]): 4.8; Ambit profiling: NDR1 (various enzymes [34]): 59; Ambit profiling: ABL2 (various enzymes [35]): 42; Ambit profiling: RIOK2 (various enzymes [36]): 74
COc1c2c(nn1C)CN(C(C)C)C(=O)CCCn1cc(c(C(F)(F)F)n1)-c1c[nH]c3ncc-2cc13 [Compound 50, (Z)-5-isopropyl-35-methoxy-31-methyl-13-(trifluoromethyl)-11H,21H,31H-5-aza-2(3,5)-pyrrolo[2,3-b]pyridina-1(4,1),3(4,3)-dipyrazolacyclononaphan-6-one] | 27 | 3.8 | 89 | 62 | 33 | 89 | 6 | 100 | 43 | 60 | 100 | 8.7 | 77 | 36 | 14 | 85 | 5.9 | 94 | 60 | 20 | Ambit profiling: ALK(L1196M) (various enzymes [15]): 12; Ambit profiling: KIT(V559D, V654A) (various enzymes [19]): 70; Ambit profiling: CDKL1 (various enzymes [23]): 51; Ambit profiling: PHKG1 (various enzymes [24]): 34; Ambit profiling: PIK3CA(Q546K) (various enzymes [25]): 86; Ambit profiling: LIMK1 (various enzymes [26]): 91; Ambit profiling: ITK (various enzymes [27]): 46; Ambit profiling: FLT3(D835V) (various enzymes [28]): 0; Ambit profiling: CTK (various enzymes [29]): 53; Ambit profiling: RSK2(Kin.Dom.1-N-terminal) (various enzymes [30]): 1.2; Ambit profiling: RSK2(Kin.Dom.2-C-terminal) (various enzymes [30]): 100; Ambit profiling: HIPK1 (various enzymes [31]): 13; Ambit profiling: IGF1R (various enzymes [32]): 69; Ambit profiling: EPH86 (various enzymes [33]): 0.7; Ambit profiling: NDR1 (various enzymes [34]): 64; Ambit profiling: ABL2 (various enzymes [35]): 22; Ambit profiling: RIOK2 (various enzymes [36]): 64
